Patent publication US10077258B2, “Substituted pyrimidine compounds as phosphatidylinositol 3-kinase delta inhibitor and use thereof” (NANJING SANHOME PHARMACEUTICAL CO., LTD., priority 2015, dated 2018)

Legend:
[1] = target: T1, PI3Kγ (Homo sapiens, UniProt P48736); test: In vitro kinase activity (LabChip EZ Reader mobility shift), PI3Kγ; assay type: biochemical; conditions: kinase subtype PI3Kγ (p110γ)
T1 construct: purchased Invitrogen PR8641C
Description: (§1) Compounds: the compounds prepared in above examples of the present invention, each of which was prepared to a concentration of 10 mM in DMSO and diluted to […], 100 nM, 10 nM, 1 nM, 0.1 nM, 0.01 nM successively.
(§2) Reagents: PI3Kα (p110α(p85a), purchased from Invitrogen, Cat.No. PV4788; PIK3Cδ (p110δ/p85a), purchased from Millipore, Cat.No. 14-604-K; PIK3Cβ (p110β), purchased from Millipore, Cat.No. 14-603-K; PIK3Cγ (pp110γ), purchased from Invitrogen, Cat.No. PR8641C; DMSO, purchased from Sigma; EDTA, purchased from Sigma; 1× kinase buffer (50 mM HEPES, pH 7.5, 0.0015% Brij-35, 10 mM MgCl2, 2 mM DTT), which was prepared before use; termination solution (100 mM HEPES, pH 7.5, 0.015% Brij-35, 0.2% Coating Reagent#3, 50 mM EDTA), which was prepared before use.
(§3) Instruments: LabChip EZ Reader purchased from Caliper, USA.
(§4) 2.1 10 μl solution of each concentration of each compound was placed into 96-well plate and 90 μl of 1× kinase buffer was added. DMSO control group and control group without kinase activity were set up, which all contained 10 μl DMSO and 90 μl of 1× kinase buffer. Each group was mixed well at room temperature for 10 min, and then 5 μl of each group was transferred to a 384-well plate.
(§5) 2.2 Kinases were dissolved in 1× kinase buffer to prepare a 2.5× kinase solution. 10 μl of 2.5× kinase solution was transferred to the 384-well plate containing compounds of different concentrations. 10 μl of 2.5× kinase solution was added to DMSO control group and 10 μl of 1× kinase buffer without kinase was added to control group without kinase activity. The plate was incubated at room temperature for 10 min.
(§6) 2.3 ATP and the polypeptide labeled with FAM were dissolved in 1× kinase buffer to prepare 2.5× substrate solution. Then 10 μl of 2.5× substrate solution was transferred to the 384-well plate and incubated at 28° C. for 1 h.
(§7) 2.4 25 μl of termination solution was added to each well to terminate the reaction.
(§8) 2.5 The plate was placed on the LabChip EZ Reader to read the data of conversion rate and inhibitory rate (1%) was calculated according to formula: I %=(Max−Com)/(Max−Min)×100, wherein Max was the conversion rate of DMSO control group, Min was the conversion rate of control group without kinase activity, Com was the conversion rate of compound treatment group. IC50 was fitted by XLfit processing of the data.

[2] = target: T2, PI3Kα (Homo sapiens, UniProt P42336); test: In vitro kinase activity (LabChip EZ Reader mobility shift), PI3Kα; assay type: biochemical; conditions: kinase subtype PI3Kα (p110α/p85a)
T2 construct: purchased Invitrogen PV4788
T2 sequence (P42336 whole entry): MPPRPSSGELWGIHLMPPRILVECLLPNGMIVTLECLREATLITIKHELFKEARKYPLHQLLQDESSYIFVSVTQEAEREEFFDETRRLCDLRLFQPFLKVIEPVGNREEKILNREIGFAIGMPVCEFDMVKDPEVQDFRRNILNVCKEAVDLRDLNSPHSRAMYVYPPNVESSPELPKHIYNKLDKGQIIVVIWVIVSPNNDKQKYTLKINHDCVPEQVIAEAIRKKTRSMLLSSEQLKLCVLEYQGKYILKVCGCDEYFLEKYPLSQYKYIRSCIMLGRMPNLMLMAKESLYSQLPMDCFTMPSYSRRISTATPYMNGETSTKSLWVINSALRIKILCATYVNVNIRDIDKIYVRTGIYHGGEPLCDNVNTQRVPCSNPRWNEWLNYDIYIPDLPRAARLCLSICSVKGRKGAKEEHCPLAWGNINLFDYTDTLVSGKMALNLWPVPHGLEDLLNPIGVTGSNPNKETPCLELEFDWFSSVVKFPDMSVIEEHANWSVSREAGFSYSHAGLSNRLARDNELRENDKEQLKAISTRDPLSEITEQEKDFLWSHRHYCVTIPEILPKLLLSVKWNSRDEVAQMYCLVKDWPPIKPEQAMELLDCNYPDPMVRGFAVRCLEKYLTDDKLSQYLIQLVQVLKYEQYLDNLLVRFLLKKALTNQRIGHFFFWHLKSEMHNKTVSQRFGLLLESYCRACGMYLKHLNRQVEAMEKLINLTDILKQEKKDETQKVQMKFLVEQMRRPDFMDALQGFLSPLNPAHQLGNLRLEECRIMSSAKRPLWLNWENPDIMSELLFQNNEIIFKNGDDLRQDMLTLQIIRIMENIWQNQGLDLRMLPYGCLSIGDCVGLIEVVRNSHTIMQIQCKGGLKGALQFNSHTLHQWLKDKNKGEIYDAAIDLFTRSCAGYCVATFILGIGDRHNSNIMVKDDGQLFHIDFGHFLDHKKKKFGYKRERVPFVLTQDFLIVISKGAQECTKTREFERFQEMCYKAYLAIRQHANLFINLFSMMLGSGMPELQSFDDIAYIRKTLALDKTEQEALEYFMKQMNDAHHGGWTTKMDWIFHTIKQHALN
T2 sequence (P27986 whole entry partner): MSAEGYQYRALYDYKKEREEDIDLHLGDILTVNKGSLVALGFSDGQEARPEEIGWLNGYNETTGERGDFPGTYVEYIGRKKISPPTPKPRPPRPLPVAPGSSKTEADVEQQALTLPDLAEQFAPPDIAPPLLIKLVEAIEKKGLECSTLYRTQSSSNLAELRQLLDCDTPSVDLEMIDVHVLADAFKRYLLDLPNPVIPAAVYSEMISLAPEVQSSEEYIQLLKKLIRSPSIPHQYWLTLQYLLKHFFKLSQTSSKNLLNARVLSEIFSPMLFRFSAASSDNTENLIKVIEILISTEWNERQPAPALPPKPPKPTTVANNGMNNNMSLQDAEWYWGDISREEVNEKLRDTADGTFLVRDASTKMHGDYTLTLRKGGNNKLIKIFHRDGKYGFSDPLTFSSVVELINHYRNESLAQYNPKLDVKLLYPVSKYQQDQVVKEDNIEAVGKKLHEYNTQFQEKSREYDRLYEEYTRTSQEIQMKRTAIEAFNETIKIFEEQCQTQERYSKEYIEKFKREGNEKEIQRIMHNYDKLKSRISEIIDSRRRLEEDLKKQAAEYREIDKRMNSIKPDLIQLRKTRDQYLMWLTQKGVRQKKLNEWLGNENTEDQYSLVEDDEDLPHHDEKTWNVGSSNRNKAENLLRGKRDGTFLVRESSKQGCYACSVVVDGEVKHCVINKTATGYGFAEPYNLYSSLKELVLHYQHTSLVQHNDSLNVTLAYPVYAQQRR
Description: as §1, §2, §3, §4, §5, §6, §7, §8

[3] = target: T3, PI3Kδ (Homo sapiens, UniProt O00329); test: In vitro kinase activity (LabChip EZ Reader mobility shift), PI3Kδ; assay type: biochemical; conditions: kinase subtype PI3Kδ (p110δ/p85a)
T3 construct: purchased Millipore 14-604-K
T3 sequence (O00329 whole entry): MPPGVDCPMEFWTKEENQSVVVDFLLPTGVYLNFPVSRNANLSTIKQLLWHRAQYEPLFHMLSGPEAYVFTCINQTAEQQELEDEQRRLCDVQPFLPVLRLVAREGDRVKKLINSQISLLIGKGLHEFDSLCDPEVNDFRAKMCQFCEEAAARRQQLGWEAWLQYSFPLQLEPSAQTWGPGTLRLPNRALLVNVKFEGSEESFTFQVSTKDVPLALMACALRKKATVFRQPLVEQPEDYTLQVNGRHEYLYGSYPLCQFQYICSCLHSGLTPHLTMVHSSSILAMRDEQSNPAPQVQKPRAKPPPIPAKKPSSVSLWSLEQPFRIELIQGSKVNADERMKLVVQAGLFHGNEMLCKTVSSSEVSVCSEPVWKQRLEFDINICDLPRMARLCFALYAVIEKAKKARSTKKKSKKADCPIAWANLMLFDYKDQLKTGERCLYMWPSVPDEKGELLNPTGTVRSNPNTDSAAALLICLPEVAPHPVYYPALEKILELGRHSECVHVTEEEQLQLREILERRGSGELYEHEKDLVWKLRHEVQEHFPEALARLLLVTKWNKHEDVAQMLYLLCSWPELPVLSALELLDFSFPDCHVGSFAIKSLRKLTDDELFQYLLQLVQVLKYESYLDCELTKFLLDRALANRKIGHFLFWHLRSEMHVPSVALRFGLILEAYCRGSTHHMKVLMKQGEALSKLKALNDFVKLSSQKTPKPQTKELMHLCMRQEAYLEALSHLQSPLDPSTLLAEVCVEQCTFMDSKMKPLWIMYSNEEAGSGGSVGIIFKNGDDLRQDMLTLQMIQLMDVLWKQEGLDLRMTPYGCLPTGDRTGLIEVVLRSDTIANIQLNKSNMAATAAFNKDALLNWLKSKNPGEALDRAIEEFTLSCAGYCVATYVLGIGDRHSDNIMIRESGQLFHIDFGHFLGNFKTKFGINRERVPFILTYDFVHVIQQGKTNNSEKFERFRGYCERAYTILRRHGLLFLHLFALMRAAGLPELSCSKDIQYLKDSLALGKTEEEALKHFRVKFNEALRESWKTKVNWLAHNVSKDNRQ
T3 sequence (P27986 whole entry partner): as the sequence (P27986 whole entry partner) above
Description: as §1, §2, §3, §4, §5, §6, §7, §8

[4] = system: SU-DHL-5 lymphoma cells; test: In vitro cell activity, CellTiter-Glo cell viability, SU-DHL-5; assay type: cell-based; conditions: Homo sapiens, SU-DHL-5 lymphoma cell line, 72 h
Description: (§9) Compounds: the compounds prepared in above examples of the present invention, each of which was prepared to a concentration of 10 mM in DMSO and diluted 3 times to 20000.00 nM, 6666.67 nM, 2222.22 nM, 740.74 nM, 246.91 nM, 27.43 nM, 9.14 nM, 3.05 nM successively.
(§10) The lymphoma cell lines SU-DHL-5 and SU-DHL-6 were purchased from the American Type Culture Collection (ATCC).
(§11) Reagents: PRMI-1640, purchased from Invitrogen (USA); FBS, purchased from Invitrogen (USA); EDTA, purchased from Sigma (USA); CellTiter-Glo® Luminescent Cell Viability Assay Kit, purchased from Progema (USA); Backseal membrane, purchased from Perkin Elmer (USA).
(§12) The cells were thawed in a 37° C. water bath and then transferred to 15 ml preheated medium. The cells were centrifuged at 1000 rpm for 5 min and the medium was discarded. The cells were resuspended in 15 ml fresh medium and transferred to T75 culture flask and incubated in an incubator at 37° C. with 5% CO2. The medium was replaced with fresh medium 24 h later.
(§13) The resuscitated cells above were transferred to a 50 ml sterile centrifuge tube and centrifuged at 1000 rpm for 5 min. The medium was discarded, and the cells were dispersed uniformly and counted. The appropriate cell concentration was adjusted in 15 ml fresh medium and added to T75 culture flask. The flask was incubated in an incubator at 37° C. with 5% CO2.
When the cells in the T75 culture flask grew to 1×10^5˜1×10^6 cells/ml, the cells were resuspended with fresh medium (RPMI-1640+20% FBS) and counted. The resuspended cells were adjusted to the following eight concentrations: 1×10^4 cells/ml, 2×10^4 cells/ml, 3×10^4 cells/ml, 5×10^4 cells/ml, 8×10^4 cells/ml, 1×10^5 cells/ml, 1.5×10^5 cells/ml, and 2×10^5 cells/ml. The above cell suspensions were added to 96-well cell culture plate, 100 μl each well (1×10^3 cells/ml, 2×10^3 cells/ml, 3×10^3 cells/ml, 5×10^3 cells/ml, 8×10^3 cells/ml, 1×10^4 cells/ml, 1.5×10^4 cells/ml, and 2×10^4 cells/ml, respectively). Each concentration was done double in three plates. 72 h later, 100 μl CellTiter-Glo® Luminescent Cell Viability Assay buffer was added to test wells and shaken gently. 10 min later, the Assay plate was attached at the bottom by Backseal membrane and placed on Envison to detect the fluorescence reading. Cell survive (%) was calculated according to the formula: cell survive (%)=(Com−Min)/(Max−Min), wherein Max was the reading of solvent control group, Min was the reading of control group without cells, and Com was the reading of compound treatment group.

[5] = system: SU-DHL-6 lymphoma cells; test: In vitro cell activity, CellTiter-Glo cell viability, SU-DHL-6; assay type: cell-based; conditions: Homo sapiens, SU-DHL-6 lymphoma cell line, 72 h
Description: as §9, §10, §11, §12, §13
When the cells in the T75 culture flask grew to 1×10^5˜1×10^6 cells/ml, the cells were resuspended with fresh medium (RPMI-1640+20% FBS) and counted. […] 10 min later, the Assay plate was attached at the bottom by Backseal membrane and placed on Envison to detect the fluorescence reading. Cell survive (%) was calculated according to the formula: cell survive (%)=(Com−Min)/(Max−Min), wherein Max was the reading of solvent control group, Min was the reading of control group without cells, and Com was the reading of compound treatment group.

[6] = target: T4, PI3Kβ (Homo sapiens, UniProt P42338); test: In vitro kinase activity (LabChip EZ Reader mobility shift), PI3Kβ; assay type: biochemical; conditions: kinase subtype PI3Kβ (p110β)
T4 construct: purchased Millipore 14-603-K
T4 sequence (P42338 whole entry): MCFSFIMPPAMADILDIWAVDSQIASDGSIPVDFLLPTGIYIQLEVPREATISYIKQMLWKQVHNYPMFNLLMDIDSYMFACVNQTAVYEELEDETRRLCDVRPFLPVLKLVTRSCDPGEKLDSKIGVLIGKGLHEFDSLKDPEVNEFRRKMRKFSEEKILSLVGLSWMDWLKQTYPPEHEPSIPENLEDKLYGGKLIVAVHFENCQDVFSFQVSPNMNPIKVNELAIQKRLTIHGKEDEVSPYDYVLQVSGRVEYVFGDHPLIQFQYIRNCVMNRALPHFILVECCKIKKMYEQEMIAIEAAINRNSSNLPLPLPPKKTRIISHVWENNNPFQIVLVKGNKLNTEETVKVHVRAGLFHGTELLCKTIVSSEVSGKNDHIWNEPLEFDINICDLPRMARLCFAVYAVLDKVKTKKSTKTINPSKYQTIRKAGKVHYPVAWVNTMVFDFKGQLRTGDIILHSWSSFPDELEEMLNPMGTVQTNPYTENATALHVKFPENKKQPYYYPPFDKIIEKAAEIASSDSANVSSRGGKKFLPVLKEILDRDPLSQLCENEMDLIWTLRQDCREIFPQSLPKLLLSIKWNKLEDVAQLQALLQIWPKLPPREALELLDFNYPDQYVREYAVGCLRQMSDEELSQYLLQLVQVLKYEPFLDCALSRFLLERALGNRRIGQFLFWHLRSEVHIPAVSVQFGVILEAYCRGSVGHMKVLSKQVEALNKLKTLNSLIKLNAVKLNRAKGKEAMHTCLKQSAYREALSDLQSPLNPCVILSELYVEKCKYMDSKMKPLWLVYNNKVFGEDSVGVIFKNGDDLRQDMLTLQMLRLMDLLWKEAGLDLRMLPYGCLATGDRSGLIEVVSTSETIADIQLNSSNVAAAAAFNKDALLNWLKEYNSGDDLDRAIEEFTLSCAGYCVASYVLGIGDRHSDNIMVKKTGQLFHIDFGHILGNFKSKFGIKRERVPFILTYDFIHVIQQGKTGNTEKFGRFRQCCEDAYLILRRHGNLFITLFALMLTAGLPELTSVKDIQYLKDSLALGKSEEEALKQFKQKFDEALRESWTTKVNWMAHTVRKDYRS
T4 sequence (P27986 whole entry partner): as the sequence (P27986 whole entry partner) above
Description: as §1, §2, §3, §4, §5, §6, §7, §8

T1 sequence (P48736 whole entry): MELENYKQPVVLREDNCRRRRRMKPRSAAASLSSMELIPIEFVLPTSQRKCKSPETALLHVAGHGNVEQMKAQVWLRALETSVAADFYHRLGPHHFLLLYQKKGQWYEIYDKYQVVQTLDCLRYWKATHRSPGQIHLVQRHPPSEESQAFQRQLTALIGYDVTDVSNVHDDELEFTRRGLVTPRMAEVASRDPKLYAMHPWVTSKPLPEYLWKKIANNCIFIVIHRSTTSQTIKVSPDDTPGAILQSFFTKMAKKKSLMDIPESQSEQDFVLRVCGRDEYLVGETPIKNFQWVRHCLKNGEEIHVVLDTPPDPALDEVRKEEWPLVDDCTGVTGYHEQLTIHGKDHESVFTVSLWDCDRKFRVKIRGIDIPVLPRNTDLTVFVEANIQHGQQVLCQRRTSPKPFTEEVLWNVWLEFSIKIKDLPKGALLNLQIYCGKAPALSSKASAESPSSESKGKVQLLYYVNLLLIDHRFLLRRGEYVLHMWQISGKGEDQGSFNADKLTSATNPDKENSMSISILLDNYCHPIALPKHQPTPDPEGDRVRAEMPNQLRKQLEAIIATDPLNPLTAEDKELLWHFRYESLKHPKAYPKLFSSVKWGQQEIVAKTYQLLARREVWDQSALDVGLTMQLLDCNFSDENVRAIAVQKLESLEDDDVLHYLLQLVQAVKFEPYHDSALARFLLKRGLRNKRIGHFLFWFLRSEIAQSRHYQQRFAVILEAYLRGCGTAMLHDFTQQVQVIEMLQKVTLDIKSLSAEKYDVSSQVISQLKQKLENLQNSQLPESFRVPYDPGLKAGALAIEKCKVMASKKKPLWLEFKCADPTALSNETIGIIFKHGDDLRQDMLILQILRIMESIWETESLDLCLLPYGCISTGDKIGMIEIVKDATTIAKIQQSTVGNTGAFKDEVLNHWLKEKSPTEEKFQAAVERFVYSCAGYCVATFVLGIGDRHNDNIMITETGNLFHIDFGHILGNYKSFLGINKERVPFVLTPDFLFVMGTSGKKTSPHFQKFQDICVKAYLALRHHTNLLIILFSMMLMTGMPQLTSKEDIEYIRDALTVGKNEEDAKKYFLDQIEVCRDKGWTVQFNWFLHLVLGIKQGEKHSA

SMILES	IC50 [1]	IC50 [2]	IC50 [3]	IC50 [4]	IC50 [5]	IC50 [6]
CC(Nc1nc(N)nc(N)c1C#N)c1c(-c2ccccc2)oc2ccccc2c1=O (stereo not drawn) [Example 4, 2,4-Diamino-5-cyano-6-(1-(4-oxo-2-phenyl-4H-chromen-3-yl)ethylamino) pyrimidine]	83 nM	> 1000 nM	9.2 nM	1.41 µM	0.014 µM	546 nM
N#Cc1c(N)ncnc1NCc1c(-c2ccccc2)[nH]c2c(Cl)cccc2c1=O [Example 14, 4-Amino-5-cyano-6-(((8-chloro-4-oxo-2-phenyl-1,4-dihydroquinolin-3-yl)methyl)amino)pyrimidine]	905 nM	> 1000 nM	3.2 nM	4.63 µM	0.16 µM	546 nM
CC(Nc1ncnc(N)c1C#N)c1c(-c2ccccc2)[nH]c2ccccc2c1=O (stereo not drawn) [Example 10, 4-Amino-5-cyano-6-((1-(4-oxo-2-phenyl-1,4-dihydroquinolin-3-yl)ethyl)amino) pyrimidine]	441 nM	1070 nM	4.4 nM	0.81 µM	0.04 µM	569 nM
